Consider 39 molecules from PubChem BioAssay AID1549 (Sanford-Burnham Center for Chemical Genomics, 2009).

Usually Kd stands for the free concentration of one partner at which half of the binding sites on the other are occupied at equilibrium, for simple one-to-one binding.

The source made the active and inactive calls. The rule behind the calls is not given here.

This test concerns the target Influenza A virus M2 proton channel (A/TW/4845/1999 H1N1). The test can be described thus: M2 proton channel binding, NMR based, influenza A virus H1N1 strain (AID 1549). The settings on record: NMR binding screen, M2 protein.
Consider `CC[C@H]1CN2CCc3cc(OC)c(OC)cc3C2C[C@@H]1CC1NCCc2cc(OC)c(OC)cc21` (some centres undefined), for which the Kd is > 4 mM (inactive).
Turning to `NCC1CN(Cc2ccccc2)CCO1` (centres undefined), the Kd was > 4 mM (inactive).
`COc1ccc2c(c1)OC/C(=C\c1ccc(OC)c(O)c1)C2=O`: the Kd was > 4 mM (inactive).
Then `Cc1cc2nc3c(=O)[nH]c(=O)nc-3n(CC(O)C(O)C(O)CO)c2cc1C` (centres undefined), with > 4 mM (inactive); and `O=C(Nc1ccncc1)c1cncc(Br)c1`, with > 4 mM (inactive).
Then `CCC(=O)n1nc(-c2ccco2)nc1N`, with > 4 mM (inactive); and `CN(C)S(=O)(=O)c1ccc(NC=O)cc1`, with > 4 mM (inactive).
Take `CNC(=S)Nc1ccc2c(c1)OCO2`: the Kd is > 4 mM (inactive).
On to `COc1ccc([C@H]2COc3c(ccc(O)c3OC)C2)c(OC)c1O`, for which the Kd was > 4 mM (inactive).
`CCOc1ccc(C(=O)c2ccncc2)cc1`: the Kd is > 4 mM (inactive).
For the molecule `Cc1ccc2[nH]cc(CCN)c2c1`, the Kd was > 4 mM (inactive).
Then `COc1cccc(N2CCN(C(=O)c3cccnc3)CC2)c1`, with > 4 mM (inactive); and `Cc1ccc2nc(SCCC#N)nc(C)c2c1`, with > 4 mM (inactive).
Then `CCOc1ccc(C(=O)c2ccc(O)c(O)c2O)cc1`, with > 4 mM (inactive); and `NC(=O)CSc1ccccn1`, with > 4 mM (inactive); and `CCCCCC1C(=O)CCC1CC(=O)OC` (centres undefined), with > 4 mM (inactive).
With `COC(=O)Cc1cc(=O)n(-c2nc3ccccc3s2)[nH]1`, the Kd was > 4 mM (inactive).
For the molecule `C[C@H]1[C@H]2CCC3C4CC=C5C[C@@H](N(C)C)CC[C@]5(C)C4CC[C@@]32CN1C` (some centres undefined), the Kd is > 4 mM (inactive).
In the case of `CC(CCC(=O)O)[C@H]1CCC2C3CC[C@@H]4CCCC[C@]4(C)C3CC[C@@]21C` (some centres undefined), the Kd is > 4 mM (inactive).
Then `Cc1ccccc1CSc1nncn1N`, with > 4 mM (inactive); and `NC(=O)c1cc(Cl)c(C(N)=O)cc1Cl`, with > 4 mM (inactive); and `CC(=O)Nc1nnc(-c2ccco2)o1`, with > 4 mM (inactive).
Take `COCc1cc(=O)oc2cc(N)ccc12`: the Kd is > 4 mM (inactive).
Regarding `CC1(C)C(=O)C=C[C@@]2(C)C1C=C[C@]1(C)C2CC[C@@]2(C)[C@H](c3ccoc3)OC(=O)C3OC321` (some centres undefined), the Kd is > 4 mM (inactive).
In the case of `O=C(O)Cc1noc2ccccc12`, the Kd is > 4 mM (inactive).
Then `O=C1C2=C(SCCS2)C(=O)N1CCCO`, with > 4 mM (inactive); and `NCc1ccc(CN2CCOCC2)cc1`, with > 4 mM (inactive).
For the molecule `CC(C)c1c(O)ccc2c1CCC1C(C)(C)CCC[C@]21C` (some centres undefined), the Kd was > 4 mM (inactive).
Then `Cc1c(N=CN2CCOCC2)c(=O)n(C)c(=O)n1C`, with > 4 mM (inactive); and `Cc1cc(O)cc(=O)n1CCCC(=O)O`, with > 4 mM (inactive).
In the case of `COC(=O)CCSCC(=O)Nc1nnc(C)s1`, the Kd was > 4 mM (inactive).
Then `CCOc1cc(S(=O)(=O)N2CCOCC2)ccc1F`, with > 4 mM (inactive); and `COC(=O)c1c(C)cc(OC)cc1O`, with > 4 mM (inactive).
On to `COC(=O)/C(C)=C\CC12OC(C)(C)C3CC(C=C4C(=O)c5c(OC)c6c(c(CC=C(C)C)c5OC431)OC(C)(CCC=C(C)C)C=C6)C2=O` (centres undefined), for which the Kd is > 4 mM (inactive).
With `CC1CCN(C(=O)c2ccc(NS(C)(=O)=O)cc2)CC1`, the Kd was > 4 mM (inactive).
On to `Cc1nc2ccc(F)cc2cc1C(=O)NCc1ccco1`, for which the Kd is > 4 mM (inactive).
Then `O=c1cc(O)nc(SCc2ccccc2)[nH]1`, with > 4 mM (inactive); and `COc1cc(C(=O)NCC2CCCO2)cc(OC)c1OC` (centres undefined), with > 4 mM (inactive).
`Nc1cc(=O)[nH]c(SCC(=O)NC2CCCCC2)n1`: the Kd was > 4 mM (inactive).
